US6040149A, “Assay for identifying agents which act on the ceramide-activated protein kinase, kinase suppressor of ras, and methods of using said agents” (priority 1997, dated 2000)

Columns and labels:
[1] = test system: protein kinase C; assay: Protein kinase C activity in EL-4 cells (lysine-rich histone phosphorylation); type: cell-based, murine (EL-4 cells); conditions: membrane or cytosolic fractions
[2] = test system: EL4 cells
[3] = test system: YT cells; assay: Ceramide generation in YT cells (preliminary); type: cell-based, human
[4] = test system: sphingomyelin pathway; assay: Sphingomyelin, ceramide and CAP kinase activity in EL-4 cell-free system; type: biochemical, murine (EL-4 cells); conditions: IL-1β 10 ng ml^-1
Method: IL-1β effects on sphingomyelin and ceramide levels (A) and ceramide-activated protein kinase activity (B) in a cell-free system. […] Thereafter, supernates (300 μg incubation^-1 in 25 μl) were added to a reaction mixture (total volume 250 μl) as described in FIG. 14. For studies measuring lipid levels, incubations were stopped by extraction of lipids into an organic phase and resolved as described in FIGS. 12 and 13. For studies measuring kinase activity, incubations contained EGFR peptide and [^32 P]ATP, and phosphorylated peptide was quantified as described in FIG. 14. Background activity was subtracted from each point. Values (mean) represent data from two experiments for sphingomyelin performed in triplicate, three experiments for ceramide performed in triplicate, and five experiments for ceramide-activated protein kinase activity performed in duplicate.
Early kinetics of activation of a potential signaling system provide some support that the pathway might be involved in the signaling process. However, signal transduction pathways are highly regulated and often interrelated. […] To provide additional support for tight coupling of the sphingomyelin pathway to activation of the IL-1β receptor, studies were performed with subcellular fractions derived from EL-4 cells. For these studies, supernates, collected after a low-speed centrifugation to remove nuclei, were first incubated with IL-1β for 10 minutes at 4° C. to permit formation of IL-1 receptor complexes. Thereafter, reactions were initiated by warming supernates to 22° C. in a reaction mixture containing Mg^2+ at pH 7.4. These conditions were adopted to allow for activation of endogenous neutral sphingomyelinase. For studies measuring kinase activity, reaction mixtures also contained [^32 P] ATP and EGFR peptide. […] In separate studies, a statistically significant reduction in sphingomyelin content (n=10) and elevation in ceramide content (n=6) were detected at 1 minute of stimulation (p<0.005 vs. control). […] These effects were quantitatively similar to those determined in the intact cells.

[5] = test system: EL-4 cells; assay: Sphingomyelin and ceramide levels in intact EL-4 cells; type: cell-based, murine
Method: IL-1β effects on sphingomyelin levels in EL4 cells. Time course (A) and dose response (B). Cells were grown to growth arrest (1-1.5×10^6 cells ml^-1) in DME/Ham's F12 medium (1:1, v/v) containing 10% horse serum and for 48 hours [^3 H]choline (1 μCi ml^-1). On the day of an experiment, cells were resuspended back into the same medium at 10×10^6 cells ml^-1 and stimulated with 40 ng ml^-1 IL-1β for the indicated times (A) or for 30 minutes with increasing concentrations of IL-1β (B). Human IL-1β may be obtained using methods well known to those skilled in the art. Reactions were terminated with CHCl3 :CH3 OH:HCl (100:100:1) containing 10 mM EDTA (82). Lipids in the organic phase extract were dried under N2 and subjected to mild alkaline hydrolysis (0.1 M methanolic KOH for 1 hour at 37° C.) to remove glycerophospholipids. Sphingomyelin was resolved by thin-layer chromatography (TLC) using CHCl3 :CH3 OH:CH3 COOH:H2 O (60:30:8:5) as solvent, identified by iodine vapor staining, and quantified by liquid scintillation spectrometry. As previously reported, the use of [^3 H]choline as a measure of sphingomyelin content was validated by simultaneous phospholipid phosphorus measurements. Each value represents the mean±SEM of triplicate determinations from four experiments in (A), and one representative of four similar studies performed in triplicate in (B).
Effect of IL-1β on ceramide levels in EL-4 cells. Cells were stimulated as in FIG. 12 with IL-1β (40 ng ml^-1) and ceramide contained within the organic phase extract quantified enzymatically using the E. coli diacylglycerol kinase reaction. Lipids were resolved by TLC using CHCl3 :CH3 OH:CH3 COOH (65/15/5) as solvent, autoradiographed and quantified by liquid scintillation spectrometry. Each value represents the mean±SEM of triplicate determinations from 10 experiments.
The murine thymoma EL-4 cell line is a well-defined IL-1 responsive cell line that expresses functional IL-1 receptors. Upon stimulation with IL-1, these cells up-regulate the IL-2 receptor and secrete IL-2 [62]. Initial studies were designed to investigate the effects of IL-1β on cellular sphingomyelin content. Cells, grown in Dulbecco's Modified Eagle's (DME)/Ham's F-12 medium containing 10% horse serum and [^3 H]choline (1 μCi ml^-1), were resuspended back into the same medium at 10×10^6 cells ml^-1 and stimulated with IL-1β. IL-1β is commercially available.

[6] = test system: ceramide-activated protein kinase; assay: Ceramide-activated protein kinase activity (EGFR peptide) in EL-4 cell fractions
Method: Effect of IL-1β on ceramide-activated protein kinase activity. […] Homogenates were centrifuged at 500×g for 5 minutes to remove nuclei and at 200,000×g for 30 minutes to prepare microsomal membranes. Membranes were resuspended into homogenizing buffer (2.2 μg membrane protein μl^-1). For assay of kinase activity, the reaction mixture contained 20 μl of microsomal membrane, 40 μl EGFR peptide (4 mg ml^-1 in 25 mM Hepes, pH 7.4) and 100 μl buffer (50 mM HEPES, pH 7.4, 20 mM MgCl2). Phosphorylation was initiated at 22° C. by addition of 40 μl [γ-^32 P] ATP (100 μM final concentration) and terminated at the indicated times by addition of 40 μl of 0.5 M ATP in 90% formic acid. Phosphorylated peptide was eluted from a C18 Sep pak cartridge (Millipore), lyophilized, and resolved by C18 reverse phase HPLC using a linear gradient of acetonitrile. […] All assays were performed under conditions determined as linear for time and enzyme concentration. Enzyme activity was determined from the percent conversion of substrate to product and the specific radioactivity of [γ-^32 P] ATP. […] Values (mean±range) represent duplicate determinations from two experiments.
Activity was measured by the transfer of ^32 P from the γ-position of ATP to EGFR peptide (AA 663-681 of the EGFR). The effect of IL-1β on kinase activity was determined using microsomal membranes derived from cells stimulated with IL-1β.

[7] = p<0.005 vs. control at 1 minute

IL-1β: Human IL-1β
protein kinase C activity [1]: not enhanced | IL-2 secretion in combination with TPA ([2]; 24 h): stimulated secretion maximally | IL-2 secretion, +TPA ([2]; with TPA 20 ng ml^-1, 24 h, nd = not detectable, mean ± range): 261 ± 2 | ceramide generation [3]: rapid generation of ceramide | ceramide-activated protein kinase activity, cell-free [4]: increased | ceramide content, cell-free [4, 7]: quantitative increase in ceramide content | sphingomyelin content, cell-free [4, 7]: rapid reduction in sphingomyelin content | ED50 (sphingomyelin hydrolysis) ([5]; 30 minutes): ≈ 2 ng ml^-1 | concentration of maximal effect (sphingomyelin hydrolysis) ([5]; 30 minutes): 10 ng/mL | effective concentration (sphingomyelin hydrolysis) ([5]; 30 minutes): 0.01 ng/mL | content of phosphatidylcholine ([5]; IL-1β): unchanged | onset of reduction in sphingomyelin content ([5]; IL-1β 40 ng ml^-1): ≤ 2 min | ceramide content ([5]; IL-1β 40 ng ml^-1, 2 minutes, from 360, p<0.005): 403 pmol 10^6 cells^-1 | maximum ceramide content ([5]; IL-1β 40 ng ml^-1, 15 minutes, from 360): 450 pmol 10^6 cells^-1 | sphingomyelin content ([5]; IL-1β 40 ng ml^-1, 30 minutes, baseline 800±14, mean±SEM, p<0.005): 648±16 pmol 10^6 cells^-1 | onset of ceramide increase ([5]; separate studies (n=4)): ≤ 30 s | ED50 (kinase activity) [6]: ≈ 2 ng ml^-1 | concentration of maximal effect (kinase activity) [6]: 10 ng/mL | effective concentration (kinase activity) [6]: 0.03 ng/mL | onset of increase in kinase activity ([6]; IL-1β 10 ng ml^-1): 30 s | time of maximal kinase activity ([6]; IL-1β 10 ng ml^-1): 2 min | kinase activity ([6]; IL-1β 10 ng ml^-1, from 5): 11 pmol/min/mg | kinase activity, fold of control ([6]; IL-1β 10 ng ml^-1, microsomal membranes, p<0.005): 2.1 fold of control | cytosolic kinase activity toward EGFR peptide ([6]; cytosolic fractions): not enhanced
